The text below walks through data of patent US8044100B2, “Methods and compositions for treating amyloid-related diseases” (Bellus Health Inc., priority 2004, dated 2011).

In this assay the target is T1, NAC peptide (Homo sapiens, UniProt P37840).
T1 construct: NAC is a 35 amino acid long peptide with highly hydrophobic stretches
The assay is described as follows: Binding to NAC peptide by electrospray mass spectrometry. As to conditions: 5:1 ratio compound:NAC (100 μM:20 μM or 200 μM:40 μM), pH 7.4; bound complex peak area / unbound NAC peak area. As to the method:
The ability of the compounds of the present invention to bind to NAC peptide in aqueous solution was evaluated. The binding ability correlates to the intensities of the peptide-compound complex peaks observed by the Electrospray Mass Spectrum. Millipore distilled deionized water was used to prepare all aqueous solutions. For pH determination a Beckman Φ36 pH meter fitted with a Corning Semi-Micro Combination pH Electrode was employed.
The optimal cone voltage was determined to be 20V.
Mass spectrometry—Mass spectrometric analysis was performed using a Waters ZQ 4000 mass spectrometer equipped with a Waters 2795 sample manager. MassLynx 4.0 (earlier by MassLynx 3.5) was used for data processing and analysis. Test compounds were mixed with disaggregated peptides in aqueous media (6.6% EtOH) at a 5:1 ratio (20 μM NAC:100 μM of test compound or 40 μM NAC:200 μM of test compound). The pH of the mixture was adjusted to 7.4 (+0.2) using 0.1% NaOH (3-5 μL). Periodically, NAC peptide solution at 20 μM or 40 μM was also prepared in the same fashion and run as control. The spectra were obtained by introducing the solutions to the electrospray source by direct infusion using a syringe pump at a flow rate of 25 μl/min, and scanning from 100 to 2100 Da in the positive mode. The scan time was 0.9 sec per scan with an inter-scan delay of 0.1 sec and the run time was 5 min for each sample. All the mass spectra were sum of 300 scans. The desolvation and source temperature was 70° C. and the cone and capillary voltage were maintained at 20 V and 3.2 kV respectively.
The total area under the peaks for the bound NAC-compound complex divided by total area under the peaks for unbound NAC was determined for each compound tested.

As for `O=S(=O)(O)CCCNC1C2CC3CC(C2)CC1C3` (centres unmarked) [drawing 749], the “Binding Strength” value is “++ (Moderate; when the total binding is between 120% and 70%)”.
The entry for `O=S(=O)(O)CC(O)CNC1CCCCC1` (centres unmarked) [drawing 751] is “+++ (Strong; when the total binding is 120% and higher)”.
